Data: PubChem BioAssay (NCI)
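Following 48 hours of exposure in 96-well plates, responses at five concentrations were used to interpolate endpoints linearly. At the TGI there is no net growth.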

Columns and labels:
Test in all cases: DTP human tumour cell line panel, 48 h
[1] = test system: HL-60(TB) leukemia
[2] = test system: RXF 393 renal
[3] = test system: M14 melanoma
[4] = test system: KM12 colon
[5] = test system: A498 renal
[6] = test system: K-562 leukemia
[7] = test system: NCI-H226 lung
[8] = test system: M19-MEL melanoma
[9] = test system: SK-OV-3 ovarian
[10] = test system: SK-MEL-28 melanoma
[11] = test system: NCI-H522 lung
[12] = test system: OVCAR-8 ovarian
[13] = test system: IGROV1 ovarian
[14] = test system: TK-10 renal
[15] = test system: NCI-H23 lung
[16] = test system: HCT-116 colon
[17] = test system: RPMI-8226 leukemia
[18] = test system: NCI-H460 lung
[19] = test system: HT29 colon
[20] = test system: DLD-1 colon
[21] = test system: OVCAR-5 ovarian
[22] = test system: HCC-2998 colon
[23] = test system: HCT-15 colon
[24] = test system: XF 498 CNS
[25] = test system: SF-539 CNS
[26] = test system: SNB-75 CNS
[27] = test system: EKVX NSCLC
[28] = test system: HOP-18 NSCLC
[29] = test system: LXFL 529 NSCLC
[30] = test system: A549 NSCLC
[31] = test system: CCRF-CEM leukemia
[32] = test system: HOP-62 NSCLC
[33] = test system: SN12C renal
[34] = test system: U251 CNS
[35] = test system: CAKI-1 renal
[36] = test system: HOP-92 NSCLC
[37] = test system: KM20L2 colon
[38] = test system: COLO 205 colon
[39] = test system: MALME-3M melanoma
[40] = test system: SF-295 CNS
[41] = test system: SW-620 colon
[42] = test system: LOX IMVI melanoma
[43] = test system: SF-268 CNS
[44] = test system: OVCAR-3 ovarian
[45] = test system: SK-MEL-2 melanoma
[46] = test system: SNB-19 CNS
[47] = test system: SK-MEL-5 melanoma
[48] = test system: UACC-62 melanoma
[49] = test system: 786-0 renal
[50] = test system: OVCAR-4 ovarian
[51] = test system: DMS 114 small cell lung
[52] = test system: MOLT-4 leukemia
[53] = test system: DMS 273 small cell lung
[54] = test system: ACHN renal
[55] = test system: RXF-631 renal
[56] = test system: UO-31 renal
[57] = test system: UACC-257 melanoma
[58] = test system: SR leukemia
[59] = test system: SNB-78 CNS

## Cc1ccc2c(CC(=O)O)cc(=O)oc2c1
[1]
  TGI: > 100 µM
[2]
  TGI: > 100 µM
[3]
  TGI: > 100 µM
[4]
  TGI: > 100 µM
[5]
  TGI: > 100 µM
[6]
  TGI: > 100 µM
[7]
  TGI: > 100 µM
[8]
  TGI: > 100 µM
[9]
  TGI: > 100 µM
[10]
  TGI: > 100 µM
[11]
  TGI: > 100 µM
[12]
  TGI: > 100 µM
[13]
  TGI: > 100 µM
[14]
  TGI: > 100 µM
[15]
  TGI: > 100 µM
[16]
  TGI: > 100 µM
[17]
  TGI: > 100 µM
[18]
  TGI: > 100 µM
[19]
  TGI: > 100 µM
[20]
  TGI: > 100 µM
[21]
  TGI: > 100 µM
[22]
  TGI: > 100 µM
[23]
  TGI: > 100 µM
[24]
  TGI: 9.18 µM
[25]
  TGI: > 100 µM
[26]
  TGI: > 100 µM
[27]
  TGI: > 100 µM
[28]
  TGI: > 100 µM
[29]
  TGI: > 100 µM
[30]
  TGI: > 100 µM
[31]
  TGI: > 100 µM
[32]
  TGI: > 100 µM
[33]
  TGI: > 100 µM
[34]
  TGI: > 100 µM
[35]
  TGI: > 100 µM
[36]
  TGI: > 100 µM
[37]
  TGI: > 100 µM
[38]
  TGI: > 100 µM
[39]
  TGI: > 100 µM
[40]
  TGI: > 100 µM
[41]
  TGI: > 100 µM
[42]
  TGI: > 100 µM
[43]
  TGI: > 100 µM
[44]
  TGI: > 100 µM
[45]
  TGI: > 100 µM
[46]
  TGI: > 100 µM
[47]
  TGI: > 100 µM
[48]
  TGI: > 100 µM
[49]
  TGI: > 100 µM
[50]
  TGI: > 100 µM
[51]
  TGI: > 100 µM
[52]
  TGI: > 100 µM
[53]
  TGI: > 100 µM
[54]
  TGI: > 100 µM

## O=[N+]([O-])c1ccc(COc2cccc3cccnc23)cc1
[1]
  TGI: 22.3 µM
[2]
  TGI: > 100 µM
[3]
  TGI: 29 µM
[4]
  TGI: 96.5 µM
[5]
  TGI: 79.2 µM
[6]
  TGI: 35.9 µM
[7]
  TGI: 95.4 µM
[8]
  TGI: 38.2 µM
[9]
  TGI: > 100 µM
[10]
  TGI: 85 µM
[11]
  TGI: 19.4 µM
[12]
  TGI: > 100 µM
[13]
  TGI: 67.7 µM
[14]
  TGI: 52.5 µM
[15]
  TGI: > 100 µM
[55]
  TGI: 33.3 µM
[16]
  TGI: > 100 µM
[56]
  TGI: 68.1 µM
[17]
  TGI: 39.2 µM
[18]
  TGI: 17.2 µM
[19]
  TGI: > 100 µM
[20]
  TGI: 71.2 µM
[21]
  TGI: > 100 µM
[22]
  TGI: > 100 µM
[23]
  TGI: 25.7 µM
[24]
  TGI: 67.5 µM
[25]
  TGI: 92.7 µM
[26]
  TGI: 78.3 µM
[27]
  TGI: 70.3 µM
[28]
  TGI: > 100 µM
[29]
  TGI: > 100 µM
[30]
  TGI: > 100 µM
[31]
  TGI: 23.7 µM
[32]
  TGI: > 100 µM
[33]
  TGI: > 100 µM
[34]
  TGI: > 100 µM
[35]
  TGI: 75 µM
[36]
  TGI: > 100 µM
[37]
  TGI: > 100 µM
[38]
  TGI: 33.5 µM
[39]
  TGI: > 100 µM
[40]
  TGI: > 100 µM
[42]
  TGI: 29.2 µM
[43]
  TGI: 68.7 µM
[44]
  TGI: > 100 µM
[45]
  TGI: > 100 µM
[46]
  TGI: > 100 µM
[47]
  TGI: 58.4 µM
[57]
  TGI: 54.8 µM
[58]
  TGI: 13.6 µM
[48]
  TGI: 45.2 µM
[49]
  TGI: 90.6 µM
[50]
  TGI: 36.7 µM
[51]
  TGI: 6.92 µM
[59]
  TGI: > 100 µM
[52]
  TGI: 31.4 µM
[53]
  TGI: 20.8 µM
[54]
  TGI: 76.8 µM
